Patent US20250032474A1, “COMBINATION OF 8-CHLORO-N-(4-(TRIFLUOROMETHOXY)PHENYL)QUINOLIN-2-AMINE AND ITS DERIVATIVES WITH A S1P RECEPTOR MODULATOR” (ABIVAX, priority 0001, published 2025)

Legend:
[1] = tested on: cytokines (TNFα, IL-6, IFNg, and IL17) in blood; experiment: T cell transfer adoptive model of colitis, cytokine levels in blood (V-PLEX proinflammatory panel); type: in vivo, C57BL/6NRj-Rag2^tm1Ciphe/Rj mice; settings: day 55; oral daily; ABX464 100 mg/kg, etrasimod 3 mg/kg, ozanimod 1.5 mg/kg, alone or combined
Procedure: (§1) 8-week-old male C57BL/6 mice and 6-week-old male C57BL/6NRj-Rag2^tm1Ciphe/Rj mice were purchased from Janvier Labs and housed in accordance with French and European regulations. The colony is maintained at 21±1° C., 50±5% humidity and under an alternating 12/12-hours light/dark cycle (light at 6:00 AM). Standard food and water were given ad libitum. Animals were allowed to acclimate to the animal facility at least 10 days prior to conducting the study.
Spleens were dissected from C57BL/6 male donor mice and placed in a PBS+2% FBS buffer. Single-cell suspension was generated with Gentle Macs Dissociator followed by mashing cells through 40-μm nylon mesh strainers. Cells were pelleted and suspended in ACK lysis buffer for 5 minutes at RT (room temperature) followed by the addition of cold PBS+2% FBS buffer. CD4+ T cells were enriched by negative selection using a CD4+ T-cell isolation kit (Miltenyi) and LS magnetic columns. The flow through was collected, and cells were centrifuged and resuspended in PBS+2% FBS buffer. Antibodies (CD45RB-PE; CD4 FITC) were added and incubated on ice for 30 minutes protected from light. Cells were washed with buffer, centrifuged, resuspended and sorted using BD FACSAria™ Fusion Flow Cytometer. CD4+CD45high and CD4+CD45low cells were sorted, centrifuged and resuspended in sterile PBS. A total of 5×10^5 cells CD4+CD45high or CD4+CD45low were intraperitoneally injected to 6-week-old male C57BL/6NRj-Rag2^tm1Ciphe/Rj mice. The group “high” (injected with CD4+CD45high) represents the […] and the group “low” (injected with CD4+CD45low) represents the […].
Rag2^tm1Ciphe/Rj mice injected with CD4+CD45high or CD4+CD45low (controls) were orally dosed daily (10 ml/kg) beginning on the day of the transfer (1 h before the cell transfer at Day 0) until day 55 with vehicle (0.5% methylcellulose) and Rag2^tm1Ciphe/Rj mice injected with CD4+CD45high were orally dosed daily with one of the following 8-Chloro-N-(4-(trifluoromethoxy)phenyl)quinolin-2-amine (ABX464) (100 mg/kg), Etrasimod (3 mg/kg), Ozanimod (1.5 mg/kg), ABX464+Etrasimod (100 mg/kg and 3 mg/kg) or ABX464+Ozanimod (100 mg/kg and 1.5 mg/kg). All mice were weighed daily.
At day 55, mice were anesthetized with isoflurane. Blood was collected at Tmax and mice were euthanized to harvest tissues. Cytokines concentrations plasma were determined using V-PLEX proinflammatory Panel mouse kit (Meso Scale Diagnostics).
Statistical analysis was performed on mean+/−standard deviation by one way ANOVA followed by Kruskal-Wallis's multiple comparisons test. Asterisk indicates the significance of the differences: *P<0.05, **P<0.01, ***P<0.001, ****P<0.0001.
In addition, a Welch ANOVA was performed on log transformed data for each cytokine, based on the above results.
A synergy was assessed by comparing each combination group effect versus vehicle to the sum of the corresponding compound alone groups' effects versus vehicle (Bonferroni-Holm's adjustment for multiplicity).
The following tables give the estimation and 95% confidence interval (95% CI) of the difference between Combination effect and Sum of compounds alone effects for each cytokine.

[2] = tested on: T cell transfer adoptive model of colitis; experiment: T cell transfer adoptive model of colitis, body weight; type: in vivo, C57BL/6NRj-Rag2^tm1Ciphe/Rj mice; settings: day 55; oral daily; ABX464 100 mg/kg, etrasimod 3 mg/kg, ozanimod 1.5 mg/kg, alone or combined
Procedure: as §1
Spleens were dissected from C57BL/6 male donor mice and placed in a PBS+2% FBS buffer. Single-cell suspension was generated with Gentle Macs Dissociator followed by mashing cells through 40-μm nylon mesh strainers. Cells were pelleted and suspended in ACK lysis buffer for 5 minutes at RT (room temperature) followed by the addition of cold PBS+2% FBS buffer. CD4+ T cells were enriched by negative selection using a CD4+ T-cell isolation kit (Miltenyi) and LS magnetic columns. The flow through was collected, and cells were centrifuged and resuspended in PBS+2% FBS buffer. Antibodies (CD45RB-PE; CD4 FITC) were added and incubated on ice for 30 minutes protected from light. Cells were washed with buffer, centrifuged, resuspended and sorted using BD FACSAria™ Fusion Flow Cytometer. […]
Weight was monitored over the period of the study (55 days), and the effect on body weight over the time period is shown in FIGS. 1A-1B. […]

[3] = tested on: peripheral blood lymphocytes; settings: oral administration; cited from earlier work
[4] = tested on: chronic plaque psoriasis; relapsing-remitting multiple sclerosis; settings: patients with moderate to severe chronic plaque psoriasis and patients with relapsing-remitting multiple sclerosis; cited from earlier work
active SPMS = settings: cited from earlier work

Structure (SMILES)	plasma level of IFNg [1]	plasma level of IL17 [1]	plasma level of IL-6 [1]	plasma level of TNFα [1]	body weight [2]	number of peripheral blood lymphocytes [3]	clinical benefit in phase II/phase III trials [4]	risk of disability and MS relapses (active SPMS)
FC(F)(F)Oc1ccc(Nc2ccc3cccc(Cl)c3n2)cc1 [ABX464, 8-Chloro-N-(4-(trifluoromethoxy)phenyl)quinolin-2-amine]	did not reduce	reduced	did not reduce	reduced	weight gain			
O=C(O)C[C@H]1CCc2c1[nH]c1ccc(OCc3ccc(C4CCCC4)c(C(F)(F)F)c3)cc21 [Etrasimod]	reduced	did not reduce	did not reduce	reduced	protection from weight loss			
CC(C)Oc1ccc(-c2nc(-c3cccc4c3CC[C@@H]4NCCO)no2)cc1C#N [Ozanimod]	reduced	did not reduce	did not reduce	reduced				
CCC/N=C1\S/C(=C\c2ccc(OC[C@H](O)CO)c(Cl)c2)C(=O)N1c1ccccc1C [Ponesimod, (R)-5-[3-chloro-4-(2,3-dihydroxy-propoxy)-benz[Z]ylidene]-2-([Z]-propylimino)-3-o-tolyl-thiazolidin-4-one]						consistent, sustained, and dose-dependent reduction	clinical benefit	
CCc1cc(/C(C)=N/OCc2ccc(C3CCCCC3)c(C(F)(F)F)c2)ccc1CN1CC(C(=O)O)C1 [Siponimod, 1-(4-[1-[(E)-4-Cyclohexyl-3-trifluoromethyl-benzyloxyimino]-ethyl]-2-ethyl-benzyl)-azetidine-3-carboxylic acid]								decreases
